Test results taken from patent US20250127918A1, “SITE-SELECTIVE CONJUGATION OF A PHARMACEUTICAL AGENT TO AN ANTIBODY USING AN AFFINITY PEPTIDE” (priority 2023, published 2025).

Columns and labels:
Type in all cases: in vivo, mouse
[1] = tested on: WT Swiss mice; test: Toxicity / safety profile of GLP1 conjugates in WT Swiss mice
Procedure: All animal experiments were performed under an MIT institute approved IACUC protocol following federal, state, and local guidelines for the care and use of animals (protocol number #0821-058-24). The studies were performed on 30-35 g (5-8 weeks-old) healthy female Swiss mice, purchased from The Jackson Laboratory (MA, USA). Mice were housed with free access to food and water ad libitum unless stated otherwise for the need of the experiment. […] Intraperitoneal injections (IP) were performed on vigil mice, in the lower right abdominal quadrant. For blood collection, mice were either punctured in the heart (terminal procedure), or gently pressed at the tail following tail pricks (vigil). […] The animals were sacrificed by CO2 inhalation followed by cervical dislocation. All compounds injected in mice were either USP grade, sterile, or filtered using 0.22 μm.
(§1) Six hours before the Ip-GTT, the mice were fasted by removing the food, the enrichment, and by placing them in a new cage to avoid coprophagy. Access to water was, however kept free and ad libitum for the entire experiment. Five minutes before the Ip-GTT, basal glycemia was measured by taking a small drop of blood using tail pricks.
In the other cohorts, 2a,3a was SC administered following either 10 mg/kg (25 nmol), 30 mg/kg (75 nmol), or three injections of 10 mg/kg, 1 per week for 3 weeks (30 mg/kg total, 75 nmol total).
(§2) All animal experiments were performed under an MIT institute approved IACUC protocol following federal, state, and local guidelines for the care and use of animals (protocol number #0821-058-24). The studies were performed either on 35-45 g (12-16 weeks-old) wild-type female Swiss mice, 25-30 g (14-20 weeks-old) male and female C57BL/6J mice, or 55-70 g (16 weeks-old) male and female obese Lep^ob/ob mice, all purchased from The Jackson Laboratory (MA, USA). Mice were housed with free access to normal food diet and water ad libitum unless stated otherwise for the need of the experiment. […] Intraperitoneal injections (IP) were performed on non-anesthetized mice, in the lower right abdominal quadrant. Blood collection for the ELISA assays and biodistributions was performed as a terminal procedure by heart puncture immediately after the sacrifice. For Ip-GTT and Ip-ITT mice were restrained and gently pressed at the tail following tail pricks. The animals were sacrificed by CO2 inhalation followed by cervical dislocation. All compounds injected in mice were either USP grade, sterile, or filtered using 0.22 μm.

[2] = tested on: WT Swiss mice; test: Intraperitoneal glucose tolerance test (Ip-GTT) in WT Swiss mice; conditions: Ip-GTT after injection
Procedure: as §1

[3] = tested on: Lep^ob/ob mice; test: Safety profile of GLP-1a conjugates in Lep^ob/ob mice; conditions: 10 mg/kg; for Number of mice showing significant aggressiveness / Number of mice with Piloerection, Moderate: cohort of 3 mice
Procedure: In Lep^ob/ob obese mice, two routes were assessed for the 10 mg/kg dose: SC and IP (Table 21). […] Investigations about the PD of 2a,3a following SC injection of 10 mg/kg were pursued in both mice models.
as §2

CC[C@H](C)[C@H](NC(=O)[C@H](Cc1ccccc1)NC(=O)[C@H](CCC(=O)O)NC(=O)[C@H](CCCCNC(=O)COCCOCCNC(=O)COCCOCCNC(=O)CC[C@H](NC(=O)CCCCCCCCCCCCCCCCC(=O)O)C(=O)O)NC(=O)[C@H](C)NC(=O)[C@H](C)NC(=O)[C@H](CCC(N)=O)NC(=O)CNC(=O)[C@H](CCC(=O)O)NC(=O)[C@H](CC(C)C)NC(=O)[C@H](Cc1ccc(O)cc1)NC(=O)[C@H](CO)NC(=O)[C@H](CO)NC(=O)[C@@H](NC(=O)[C@H](CC(=O)O)NC(=O)[C@H](CO)NC(=O)[C@@H](NC(=O)[C@H](Cc1ccccc1)NC(=O)[C@@H](NC(=O)CNC(=O)[C@H](CCC(=O)O)NC(=O)C(C)(C)NC(=O)[C@@H](N)Cc1cnc[nH]1)[C@@H](C)O)[C@@H](C)O)C(C)C)C(=O)N[C@@H](C)C(=O)N[C@@H](Cc1c[nH]c2ccccc12)C(=O)N[C@@H](CC(C)C)C(=O)N[C@H](C(=O)N[C@@H](CCCNC(=N)N)C(=O)NCC(=O)N[C@@H](CCCNC(=N)N)C(=O)NCC(=O)O)C(C)C [Semaglutide]
Number of mice with Aggressiveness ([1]; SC 0.5 mg/kg, cohort of 5 mice): 0
Number of mice with Piloerection Mild ([1]; SC 0.5 mg/kg, cohort of 5 mice): 0
Number of mice with Piloerection Severe ([1]; SC 0.5 mg/kg, cohort of 5 mice): 0
Number of mice with Piloerection, Moderate ([1]; SC 0.5 mg/kg, cohort of 5 mice): 0
Number of mice with Piloerection Mild ([1]; SC 3 mg/kg, cohort of 5 mice): 0
Number of mice with Piloerection Mild ([1]; SC 10 mg/kg, cohort of 15 mice): 0
Number of mice with Piloerection, Moderate ([1]; SC 10 mg/kg, cohort of 15 mice, time per cell footnote (¤ over 48 h)): 0
Hypoglycemia [2]: induce hypoglycemia
Tolerability, both routes (SC and IP) ([3]; Lep^ob/ob obese mice): significantly impact the mice behavior and induce hypoglycemia
Mean fasting blood glucose ([3]; female Lep^ob/ob mice, IP): 104 ± 6 mg/dL
Number of mice showing significant aggressiveness ([3]; female Lep^ob/ob mice, IP): 3
Mean fasting blood glucose ([3]; female Lep^ob/ob mice, SC): 97 ± 7 mg/dL
Number of mice showing significant aggressiveness ([3]; female Lep^ob/ob mice, SC): 3
Number of mice with Piloerection, Moderate ([3]; female Lep^ob/ob mice, SC): 3
Mean fasting blood glucose ([3]; male Lep^ob/ob mice, IP): 111 ± 14 mg/dL
Number of mice showing significant aggressiveness ([3]; male Lep^ob/ob mice, IP): 3
Mean fasting blood glucose ([3]; male Lep^ob/ob mice, SC): 75 ± 12 mg/dL
Number of mice showing significant aggressiveness ([3]; male Lep^ob/ob mice, SC): 3
Number of mice with Piloerection, Moderate ([3]; male Lep^ob/ob mice, SC): 3
